In ChEMBL document CHEMBL5444388, “Affinity Phenotypic Cellular Literature for EUbOPEN Chemogenomic Library” (2024):

Assays:
Format in all cases: functional, cell-based
Set-up in all cases: recommended concentration 100 nM
[1] = molecular target: Centromere-associated protein E (Homo sapiens) (UniProt Q02224); test: Affinity Phenotypic Cellular interaction: (Cell-growth inhibition assays (growth inhibitory effect colon cancer cell line SHP-77)) EUB0000734a CENPE; conditions: SHP77, Affinity Phenotypic Cellular Source Knowledge https://pubmed.ncbi.nlm.nih.gov/20167803/
Chain of Centromere-associated protein E (Homo sapiens) (Q02224 whole entry): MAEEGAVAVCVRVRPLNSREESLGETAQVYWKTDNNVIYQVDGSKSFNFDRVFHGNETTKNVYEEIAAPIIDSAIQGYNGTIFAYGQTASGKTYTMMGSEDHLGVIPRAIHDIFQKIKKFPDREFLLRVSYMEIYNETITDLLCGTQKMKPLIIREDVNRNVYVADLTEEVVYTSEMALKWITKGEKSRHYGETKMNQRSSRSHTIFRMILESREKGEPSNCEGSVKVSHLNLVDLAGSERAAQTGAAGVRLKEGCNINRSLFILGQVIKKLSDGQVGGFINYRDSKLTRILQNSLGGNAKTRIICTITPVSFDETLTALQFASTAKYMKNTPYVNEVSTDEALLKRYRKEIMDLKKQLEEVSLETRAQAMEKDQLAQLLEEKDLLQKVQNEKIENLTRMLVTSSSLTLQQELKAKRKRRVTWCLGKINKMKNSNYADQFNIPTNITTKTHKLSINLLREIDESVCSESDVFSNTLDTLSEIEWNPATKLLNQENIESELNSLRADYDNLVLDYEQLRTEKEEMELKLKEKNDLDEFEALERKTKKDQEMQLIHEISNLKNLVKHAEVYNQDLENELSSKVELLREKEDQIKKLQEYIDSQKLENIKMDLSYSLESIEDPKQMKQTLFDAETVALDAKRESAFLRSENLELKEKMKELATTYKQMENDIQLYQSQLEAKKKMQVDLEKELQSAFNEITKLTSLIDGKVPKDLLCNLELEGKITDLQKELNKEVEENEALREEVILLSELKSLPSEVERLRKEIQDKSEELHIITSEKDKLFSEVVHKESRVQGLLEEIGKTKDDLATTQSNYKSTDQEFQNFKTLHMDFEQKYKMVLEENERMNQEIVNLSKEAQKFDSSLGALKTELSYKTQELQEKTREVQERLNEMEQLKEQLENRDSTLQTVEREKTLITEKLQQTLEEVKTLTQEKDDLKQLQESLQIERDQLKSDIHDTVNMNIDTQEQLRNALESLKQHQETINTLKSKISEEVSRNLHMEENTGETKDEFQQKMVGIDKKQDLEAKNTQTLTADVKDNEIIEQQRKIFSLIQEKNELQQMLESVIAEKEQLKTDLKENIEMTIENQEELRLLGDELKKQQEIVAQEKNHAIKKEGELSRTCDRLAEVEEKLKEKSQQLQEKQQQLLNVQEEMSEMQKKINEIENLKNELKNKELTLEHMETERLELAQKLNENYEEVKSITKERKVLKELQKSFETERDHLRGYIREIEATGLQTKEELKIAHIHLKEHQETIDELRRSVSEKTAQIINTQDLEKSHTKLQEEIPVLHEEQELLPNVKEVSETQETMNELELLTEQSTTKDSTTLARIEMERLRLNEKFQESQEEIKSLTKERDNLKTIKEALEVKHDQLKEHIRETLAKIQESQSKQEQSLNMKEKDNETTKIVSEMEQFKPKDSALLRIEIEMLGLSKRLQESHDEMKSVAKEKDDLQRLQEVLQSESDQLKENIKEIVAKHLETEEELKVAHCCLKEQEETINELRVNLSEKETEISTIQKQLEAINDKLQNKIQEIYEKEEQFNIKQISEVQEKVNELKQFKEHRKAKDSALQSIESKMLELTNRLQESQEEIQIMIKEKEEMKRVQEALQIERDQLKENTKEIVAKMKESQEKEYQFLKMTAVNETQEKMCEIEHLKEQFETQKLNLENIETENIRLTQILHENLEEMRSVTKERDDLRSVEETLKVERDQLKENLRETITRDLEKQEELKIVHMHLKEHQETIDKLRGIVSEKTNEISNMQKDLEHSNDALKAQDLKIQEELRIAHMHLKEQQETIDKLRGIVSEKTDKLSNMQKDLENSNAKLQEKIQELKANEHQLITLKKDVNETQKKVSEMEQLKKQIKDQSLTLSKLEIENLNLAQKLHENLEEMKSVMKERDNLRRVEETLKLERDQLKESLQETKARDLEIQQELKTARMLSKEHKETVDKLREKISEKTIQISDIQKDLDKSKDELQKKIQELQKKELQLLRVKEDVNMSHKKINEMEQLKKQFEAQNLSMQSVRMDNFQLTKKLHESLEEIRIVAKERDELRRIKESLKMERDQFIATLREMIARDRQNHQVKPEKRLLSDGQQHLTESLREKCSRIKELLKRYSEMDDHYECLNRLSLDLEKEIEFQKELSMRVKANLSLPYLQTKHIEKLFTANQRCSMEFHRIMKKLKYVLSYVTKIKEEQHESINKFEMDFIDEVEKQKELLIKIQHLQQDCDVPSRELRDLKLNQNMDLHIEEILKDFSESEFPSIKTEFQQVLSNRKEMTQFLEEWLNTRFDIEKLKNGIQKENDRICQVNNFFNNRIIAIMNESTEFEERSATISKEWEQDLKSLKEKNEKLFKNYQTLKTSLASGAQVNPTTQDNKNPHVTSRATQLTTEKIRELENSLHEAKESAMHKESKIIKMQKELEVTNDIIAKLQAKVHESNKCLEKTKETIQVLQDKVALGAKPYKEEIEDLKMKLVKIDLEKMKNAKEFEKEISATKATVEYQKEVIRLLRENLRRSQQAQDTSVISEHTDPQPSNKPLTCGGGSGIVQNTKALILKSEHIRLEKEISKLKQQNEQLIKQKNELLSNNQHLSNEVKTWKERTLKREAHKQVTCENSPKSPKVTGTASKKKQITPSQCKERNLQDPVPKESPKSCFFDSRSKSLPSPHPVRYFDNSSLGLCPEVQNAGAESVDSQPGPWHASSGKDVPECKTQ

[2] = molecular target: Centromere-associated protein E (Homo sapiens) (UniProt Q02224); test: Affinity Phenotypic Cellular interaction: (Cell-growth inhibition assays (growth inhibitory effect colon cancer cell line Y79)) EUB0000734a CENPE; conditions: Affinity Phenotypic Cellular Source Knowledge https://pubmed.ncbi.nlm.nih.gov/20167803/
[3] = molecular target: Centromere-associated protein E (Homo sapiens) (UniProt Q02224); test: Affinity Phenotypic Cellular interaction: (Cell-growth inhibition assays (growth inhibitory effect colon cancer cell line HEC-1-A)) EUB0000734a CENPE; conditions: Affinity Phenotypic Cellular Source Knowledge https://pubmed.ncbi.nlm.nih.gov/20167803/
[4] = molecular target: Centromere-associated protein E (Homo sapiens) (UniProt Q02224); test: Affinity Phenotypic Cellular interaction: (Cell-growth inhibition assays (growth inhibitory effect colon cancer cell line HN5)) EUB0000734a CENPE; conditions: Affinity Phenotypic Cellular Source Knowledge https://pubmed.ncbi.nlm.nih.gov/20167803/
[5] = molecular target: Centromere-associated protein E (Homo sapiens) (UniProt Q02224); test: Affinity Phenotypic Cellular interaction: (Cell-growth inhibition assays (growth inhibitory effect colon cancer cell line NCI-H2171)) EUB0000734a CENPE; conditions: Affinity Phenotypic Cellular Source Knowledge https://pubmed.ncbi.nlm.nih.gov/20167803/
[6] = molecular target: Centromere-associated protein E (Homo sapiens) (UniProt Q02224); test: Affinity Phenotypic Cellular interaction: (Cell-growth inhibition assays (growth inhibitory effect colon cancer cell line EFM-19)) EUB0000734a CENPE; conditions: Affinity Phenotypic Cellular Source Knowledge https://pubmed.ncbi.nlm.nih.gov/20167803/
[7] = molecular target: Centromere-associated protein E (Homo sapiens) (UniProt Q02224); test: Affinity Phenotypic Cellular interaction: (Cell-growth inhibition assays (growth inhibitory effect colon cancer cell line HCT-15)) EUB0000734a CENPE; conditions: Affinity Phenotypic Cellular Source Knowledge https://pubmed.ncbi.nlm.nih.gov/20167803/
[8] = molecular target: Centromere-associated protein E (Homo sapiens) (UniProt Q02224); test: Affinity Phenotypic Cellular interaction: (Cell-growth inhibition assays (growth inhibitory effect colon cancer cell line H4)) EUB0000734a CENPE; conditions: Affinity Phenotypic Cellular Source Knowledge https://pubmed.ncbi.nlm.nih.gov/20167803/
[9] = molecular target: Centromere-associated protein E (Homo sapiens) (UniProt Q02224); test: Affinity Phenotypic Cellular interaction: (Cell-growth inhibition assays (growth inhibitory effect colon cancer cell line HT-3)) EUB0000734a CENPE; conditions: Affinity Phenotypic Cellular Source Knowledge https://pubmed.ncbi.nlm.nih.gov/20167803/
[10] = molecular target: Centromere-associated protein E (Homo sapiens) (UniProt Q02224); test: Affinity Phenotypic Cellular interaction: (Cell-growth inhibition assays (growth inhibitory effect colon cancer cell line SW-954)) EUB0000734a CENPE; conditions: Affinity Phenotypic Cellular Source Knowledge https://pubmed.ncbi.nlm.nih.gov/20167803/
[11] = molecular target: Centromere-associated protein E (Homo sapiens) (UniProt Q02224); test: Affinity Phenotypic Cellular interaction: (Cell-growth inhibition assays (growth inhibitory effect colon cancer cell line CESS)) EUB0000734a CENPE; conditions: Affinity Phenotypic Cellular Source Knowledge https://pubmed.ncbi.nlm.nih.gov/20167803/
[12] = molecular target: Centromere-associated protein E (Homo sapiens) (UniProt Q02224); test: Affinity Phenotypic Cellular interaction: (Cell-growth inhibition assays (growth inhibitory effect colon cancer cell line BT-20)) EUB0000734a CENPE; conditions: Affinity Phenotypic Cellular Source Knowledge https://pubmed.ncbi.nlm.nih.gov/20167803/
[13] = molecular target: Centromere-associated protein E (Homo sapiens) (UniProt Q02224); test: Affinity Phenotypic Cellular interaction: (Cell-growth inhibition assays (growth inhibitory effect colon cancer cell line CCF-STTG1)) EUB0000734a CENPE; conditions: Affinity Phenotypic Cellular Source Knowledge https://pubmed.ncbi.nlm.nih.gov/20167803/
[14] = molecular target: Centromere-associated protein E (Homo sapiens) (UniProt Q02224); test: Affinity Phenotypic Cellular interaction: (Cell-growth inhibition assays (growth inhibitory effect breast cancer cell line MT-3)) EUB0000734a CENPE; conditions: Affinity Phenotypic Cellular Source Knowledge https://pubmed.ncbi.nlm.nih.gov/20167803/
[15] = molecular target: Centromere-associated protein E (Homo sapiens) (UniProt Q02224); test: Affinity Phenotypic Cellular interaction: (Cell-growth inhibition assays (growth inhibitory effect colon cancer cell line SCC-4)) EUB0000734a CENPE; conditions: Affinity Phenotypic Cellular Source Knowledge https://pubmed.ncbi.nlm.nih.gov/20167803/
[16] = molecular target: Centromere-associated protein E (Homo sapiens) (UniProt Q02224); test: Affinity Phenotypic Cellular interaction: (Cell-growth inhibition assays (growth inhibitory effect colon cancer cell line SW480)) EUB0000734a CENPE; conditions: Affinity Phenotypic Cellular Source Knowledge https://pubmed.ncbi.nlm.nih.gov/20167803/
[17] = molecular target: Centromere-associated protein E (Homo sapiens) (UniProt Q02224); test: Affinity Phenotypic Cellular interaction: (Cell-growth inhibition assays (growth inhibitory effect colon cancer cell line G-401)) EUB0000734a CENPE; conditions: Affinity Phenotypic Cellular Source Knowledge https://pubmed.ncbi.nlm.nih.gov/20167803/
[18] = molecular target: Centromere-associated protein E (Homo sapiens) (UniProt Q02224); test: Affinity Phenotypic Cellular interaction: (Cell-growth inhibition assays (growth inhibitory effect colon cancer cell line A673)) EUB0000734a CENPE; conditions: Affinity Phenotypic Cellular Source Knowledge https://pubmed.ncbi.nlm.nih.gov/20167803/
[19] = molecular target: Centromere-associated protein E (Homo sapiens) (UniProt Q02224); test: Affinity Phenotypic Cellular interaction: (Cell-growth inhibition assays (growth inhibitory effect colon cancer cell line A549)) EUB0000734a CENPE; conditions: Affinity Phenotypic Cellular Source Knowledge https://pubmed.ncbi.nlm.nih.gov/20167803/
[20] = molecular target: Centromere-associated protein E (Homo sapiens) (UniProt Q02224); test: Affinity Phenotypic Cellular interaction: (Cell-growth inhibition assays (growth inhibitory effect colon cancer cell line SNB-19)) EUB0000734a CENPE; conditions: Affinity Phenotypic Cellular Source Knowledge https://pubmed.ncbi.nlm.nih.gov/20167803/
[21] = molecular target: Centromere-associated protein E (Homo sapiens) (UniProt Q02224); test: Affinity Phenotypic Cellular interaction: (Cell-growth inhibition assays (growth inhibitory effect colon cancer cell line Raji)) EUB0000734a CENPE; conditions: Affinity Phenotypic Cellular Source Knowledge https://pubmed.ncbi.nlm.nih.gov/20167803/
[22] = molecular target: Centromere-associated protein E (Homo sapiens) (UniProt Q02224); test: Affinity Phenotypic Cellular interaction: (Cell-growth inhibition assays (growth inhibitory effect colon cancer cell line HT-29)) EUB0000734a CENPE; conditions: Affinity Phenotypic Cellular Source Knowledge https://pubmed.ncbi.nlm.nih.gov/20167803/
[23] = molecular target: Centromere-associated protein E (Homo sapiens) (UniProt Q02224); test: Affinity Phenotypic Cellular interaction: (Cell-growth inhibition assays (growth inhibitory effect colon cancer cell line HCC1143)) EUB0000734a CENPE; conditions: Affinity Phenotypic Cellular Source Knowledge https://pubmed.ncbi.nlm.nih.gov/20167803/
[24] = molecular target: Centromere-associated protein E (Homo sapiens) (UniProt Q02224); test: Affinity Phenotypic Cellular interaction: (Cell-growth inhibition assays (growth inhibitory effect colon cancer cell line HOP-62)) EUB0000734a CENPE; conditions: Affinity Phenotypic Cellular Source Knowledge https://pubmed.ncbi.nlm.nih.gov/20167803/
[25] = molecular target: Centromere-associated protein E (Homo sapiens) (UniProt Q02224); test: Affinity Phenotypic Cellular interaction: (Cell-growth inhibition assays (growth inhibitory effect colon cancer cell line U251)) EUB0000734a CENPE; conditions: U-251, Affinity Phenotypic Cellular Source Knowledge https://pubmed.ncbi.nlm.nih.gov/20167803/
[26] = molecular target: Centromere-associated protein E (Homo sapiens) (UniProt Q02224); test: Affinity Phenotypic Cellular interaction: (Cell-growth inhibition assays (growth inhibitory effect colon cancer cell line CHP-212)) EUB0000734a CENPE; conditions: Affinity Phenotypic Cellular Source Knowledge https://pubmed.ncbi.nlm.nih.gov/20167803/
[27] = molecular target: Centromere-associated protein E (Homo sapiens) (UniProt Q02224); test: Affinity Phenotypic Cellular interaction: (Cell-growth inhibition assays (growth inhibitory effect colon cancer cell line SW1088)) EUB0000734a CENPE; conditions: Affinity Phenotypic Cellular Source Knowledge https://pubmed.ncbi.nlm.nih.gov/20167803/
[28] = molecular target: Centromere-associated protein E (Homo sapiens) (UniProt Q02224); test: Affinity Phenotypic Cellular interaction: (Cell-growth inhibition assays (growth inhibitory effect colon cancer cell line HEC-1-B)) EUB0000734a CENPE; conditions: Affinity Phenotypic Cellular Source Knowledge https://pubmed.ncbi.nlm.nih.gov/20167803/
[29] = molecular target: Centromere-associated protein E (Homo sapiens) (UniProt Q02224); test: Affinity Phenotypic Cellular interaction: (Cell-growth inhibition assays (growth inhibitory effect colon cancer cell line T-47D)) EUB0000734a CENPE; conditions: T47D, Affinity Phenotypic Cellular Source Knowledge https://pubmed.ncbi.nlm.nih.gov/20167803/
[30] = molecular target: Centromere-associated protein E (Homo sapiens) (UniProt Q02224); test: Affinity Phenotypic Cellular interaction: (Cell-growth inhibition assays (growth inhibitory effect colon cancer cell line 22Rv1)) EUB0000734a CENPE; conditions: CWR22R, Affinity Phenotypic Cellular Source Knowledge https://pubmed.ncbi.nlm.nih.gov/20167803/
[31] = molecular target: Centromere-associated protein E (Homo sapiens) (UniProt Q02224); test: Affinity Phenotypic Cellular interaction: (Cell-growth inhibition assays (growth inhibitory effect colon cancer cell line SR)) EUB0000734a CENPE; conditions: Affinity Phenotypic Cellular Source Knowledge https://pubmed.ncbi.nlm.nih.gov/20167803/
[32] = molecular target: Centromere-associated protein E (Homo sapiens) (UniProt Q02224); test: Affinity Phenotypic Cellular interaction: (Cell-growth inhibition assays (growth inhibitory effect colon cancer cell line UACC-257)) EUB0000734a CENPE; conditions: Affinity Phenotypic Cellular Source Knowledge https://pubmed.ncbi.nlm.nih.gov/20167803/
[33] = molecular target: Centromere-associated protein E (Homo sapiens) (UniProt Q02224); test: Affinity Phenotypic Cellular interaction: (Cell-growth inhibition assays (growth inhibitory effect colon cancer cell line SNB-75)) EUB0000734a CENPE; conditions: Affinity Phenotypic Cellular Source Knowledge https://pubmed.ncbi.nlm.nih.gov/20167803/
[34] = molecular target: Centromere-associated protein E (Homo sapiens) (UniProt Q02224); test: Affinity Phenotypic Cellular interaction: (Cell-growth inhibition assays (growth inhibitory effect colon cancer cell line SNU-423)) EUB0000734a CENPE; conditions: Affinity Phenotypic Cellular Source Knowledge https://pubmed.ncbi.nlm.nih.gov/20167803/
[35] = molecular target: Centromere-associated protein E (Homo sapiens) (UniProt Q02224); test: Affinity Phenotypic Cellular interaction: (Cell-growth inhibition assays (growth inhibitory effect colon cancer cell line EKVX)) EUB0000734a CENPE; conditions: Affinity Phenotypic Cellular Source Knowledge https://pubmed.ncbi.nlm.nih.gov/20167803/
[36] = molecular target: Centromere-associated protein E (Homo sapiens) (UniProt Q02224); test: Affinity Phenotypic Cellular interaction: (Cell-growth inhibition assays (growth inhibitory effect colon cancer cell line NCI-H292)) EUB0000734a CENPE; conditions: Affinity Phenotypic Cellular Source Knowledge https://pubmed.ncbi.nlm.nih.gov/20167803/
[37] = molecular target: Centromere-associated protein E (Homo sapiens) (UniProt Q02224); test: Affinity Phenotypic Cellular interaction: (Cell-growth inhibition assays (growth inhibitory effect colon cancer cell line SF-295)) EUB0000734a CENPE; conditions: Affinity Phenotypic Cellular Source Knowledge https://pubmed.ncbi.nlm.nih.gov/20167803/
[38] = molecular target: Centromere-associated protein E (Homo sapiens) (UniProt Q02224); test: Affinity Phenotypic Cellular interaction: (Cell-growth inhibition assays (growth inhibitory effect colon cancer cell line SW837)) EUB0000734a CENPE; conditions: Affinity Phenotypic Cellular Source Knowledge https://pubmed.ncbi.nlm.nih.gov/20167803/
[39] = molecular target: Centromere-associated protein E (Homo sapiens) (UniProt Q02224); test: Affinity Phenotypic Cellular interaction: (Cell-growth inhibition assays (growth inhibitory effect colon cancer cell line CRO-AP2)) EUB0000734a CENPE; conditions: Affinity Phenotypic Cellular Source Knowledge https://pubmed.ncbi.nlm.nih.gov/20167803/

GIC50 [1]: 86 nM
GIC50 [2]: 70 nM
GIC50 [3]: 50 nM
GIC50 [4]: 118 nM
GIC50 [5]: 24 nM
GIC50 [6]: 28 nM
GIC50 [7]: 151 nM
GIC50 [8]: 31 nM
GIC50 [9]: 10 µM
GIC50 [10]: 22 nM
GIC50 [11]: 19 nM
GIC50 [12]: 32 nM
GIC50 [13]: 24 nM
GIC50 [14]: 41 nM
GIC50 [15]: 28 nM
GIC50 [16]: 33 nM
GIC50 [17]: 26 nM
GIC50 [18]: 23 nM
GIC50 [19]: 21 nM
GIC50 [20]: 28 nM
GIC50 [21]: 41 nM
GIC50 [22]: 14 nM
GIC50 [23]: 27 nM
GIC50 [24]: 20 nM
GIC50 [25]: 26 nM
GIC50 [26]: 34 nM
GIC50 [27]: 32 nM
GIC50 [28]: 28 nM
GIC50 [29]: 29 nM
GIC50 [30]: 29 nM
GIC50 [31]: 29 nM
GIC50 [32]: 32 nM
GIC50 [33]: 26 nM
GIC50 [34]: 34 nM
GIC50 [35]: 28 nM
GIC50 [36]: 31 nM
GIC50 [37]: 35 nM
GIC50 [38]: 33 nM
GIC50 [39]: 51 nM
SMILES: CC(C)Oc1ccc(C(=O)N[C@H](CNC(=O)CN(C)C)Cc2ccc(-c3cn4cccc([C@H](C)O)c4n3)cc2)cc1Cl
